Laboratory results: ChEMBL document CHEMBL1122120, “Brain levels and metabolism of the dopaminergic agonist 2-amino-6,7-dihydroxytetrahydronaphthalene after administration of various prodrugs” (J Med Chem, 1982)

How the values were obtained:
[1] = Tested for the stability in water after 6h, activity expressed as percentage hydrolysis; assay type: physicochemical; settings: read-out: Hydrolysis
[2] = Tested for the stability in water after 24h, activity expressed as percentage hydrolysis; assay type: physicochemical; settings: read-out: Hydrolysis

Compound	degraded at 6 h [1]	degraded at 24 h [2]
CC(C)C(=O)Oc1cc2c(cc1OC(=O)C(C)C)CC(N)CC2 (stereo not drawn)	0.06%	0.23%
CC(=O)Oc1cc2c(cc1OC(C)=O)CC(N)CC2 (stereo not drawn)	1.64%	3.74%
CC(C)(C)C(=O)Oc1cc2c(cc1OC(=O)C(C)(C)C)CC(N)CC2 (stereo not drawn)	0.01%	0.02%
NC1CCc2cc(OC(=O)c3ccccc3)c(OC(=O)c3ccccc3)cc2C1 (stereo not drawn)	0.03%	0.06%
